From US9593122B2, “Substituted pyrazolylpyrazole derivative and use of same as herbicide” (KYOYU AGRI CO., LTD., priority 2013, dated 2017)

Columns and labels:
Format in all cases: in vivo
[1] = tested on: Echinochloa crus-galli; experiment: Paddy herbicidal activity test; conditions: irrigated paddy pot, treated at 3.5 leaf stage of Echinochloa crus-galli, 30 days
Description: (§1) Rice paddy soil was filled into a 1/10000 are pot followed by the addition of suitable amounts of water and chemical fertilizer, kneading, seeding with Echinochloa crus-galli, Monochoria vaginalis and Scirpus juncoides and maintaining in an irrigated state at a water depth of 3 cm.
(§2) Wettable powder of Target Compound (I) shown in Table 1 prepared in compliance with the preparation examples were diluted with a suitable amount of water, rice plants in the 2.0 leaf stage were transplanted during 3.5 leaf stage of Echinochloa crus-galli, and treated by dropping in chemical in the prescribed amount per are using a pipette.
(§3) After treating for 30 days in a glass greenhouse at an average atmospheric temperature of 30° C., the herbicidal efficacy thereof was investigated.
(§4) Evaluation of herbicidal efficacy was carried out by comparing growth inhibition rate (%) with an untreated group, while evaluation of phytotoxicity was carried out by comparing growth inhibition rate (%) with the state of a complete eradication group, and were evaluated at 11 levels indicated below.

[2] = tested on: Monochoria vaginalis; experiment: Paddy herbicidal activity test; conditions: irrigated paddy pot, 30 days
Description: as §1, §2, §3, §4

[3] = tested on: Scirpus juncoides; experiment: Paddy herbicidal activity test; conditions: irrigated paddy pot, 30 days
Description: as §1, §2, §3, §4

[4] = tested on: Amaranthus retroflexus; experiment: Farming soil treatment test; conditions: soil surface spray prior to weed growth, 30 days
Description: (§5) Field soil was filled into a 1/6000 are pot followed by seeding with Digitaria ciliaris, Chenopodium album and Amaranthus retroflexus and covering with soil.
(§6) Wettable powder of compounds of formula (I) shown in Table 1 prepared in compliance with the preparation examples were diluted with water to the prescribed amount of chemical and uniformly sprayed onto each soil surface layer using 10 liters of sprayed water per are prior to weed growth following seeding.
as §3
(§7) Evaluation of herbicidal efficacy is carried out in the same manner as the above-mentioned Test Example 1.

[5] = tested on: Chenopodium album; experiment: Farming soil treatment test; conditions: soil surface spray prior to weed growth, 30 days
Description: as §5, §6, §3, §7

[6] = tested on: Digitaria ciliaris; experiment: Farming soil treatment test; conditions: soil surface spray prior to weed growth, 30 days
Description: as §5, §6, §3, §7

[7] = tested on: Amaranthus retroflexus; experiment: Weed foliar treatment test; conditions: foliar spray, 3 weeks
Description: (§8) Soil was filled into a 1/6000 are pot followed by seeding with Digitaria ciliaris, Chenopodium album and Amaranthus retroflexus, covering with soil, and cultivating in a glass greenhouse at an average atmospheric temperature of 25° C.
(§9) Wettable powder of Target Compound (I) shown in Table 1 prepared in compliance with the preparation examples were diluted with water to the prescribed amount of chemical and uniformly sprayed onto the weeds using 15 liters of sprayed water per are when Digitaria ciliaris had grown to the 1.0 to 2.0 leaf stage.
(§10) After treating for 3 weeks in a glass greenhouse at an average atmospheric temperature of 25° C., the herbicidal efficacy thereof was investigated.
(§11) Evaluation of herbicidal efficacy was carried out in the same manner as the above-mentioned Test Example 1.

[8] = tested on: Chenopodium album; experiment: Weed foliar treatment test; conditions: foliar spray, 3 weeks
Description: as §8, §9, §10, §11

[9] = tested on: Digitaria ciliaris; experiment: Weed foliar treatment test; conditions: foliar spray at 1.0 to 2.0 leaf stage of Digitaria ciliaris, 3 weeks
Description: as §8, §9, §10, §11

SMILES | Echinochloa crus-galli herbicidal efficacy (growth inhibition level) ([1]; 1g a.i./10a) | Echinochloa crus-galli herbicidal efficacy (growth inhibition level) ([1]; 5g a.i./10a) | Monochoria vaginalis herbicidal efficacy (growth inhibition level) ([2]; 1g a.i./10a) | Monochoria vaginalis herbicidal efficacy (growth inhibition level) ([2]; 5g a.i./10a) | Scirpus juncoides herbicidal efficacy (growth inhibition level) ([3]; 1g a.i./10a) | Scirpus juncoides herbicidal efficacy (growth inhibition level) ([3]; 5g a.i./10a) | Amaranthus retroflexus herbicidal efficacy (growth inhibition level) ([4]; 5g a.i./10a) | Amaranthus retroflexus herbicidal efficacy (growth inhibition level) ([4]; 10g a.i./10a) | Chenopodium album herbicidal efficacy (growth inhibition level) ([5]; 5g a.i./10a) | Chenopodium album herbicidal efficacy (growth inhibition level) ([5]; 10g a.i./10a) | Digitaria ciliaris herbicidal efficacy (growth inhibition level) ([6]; 5g a.i./10a) | Digitaria ciliaris herbicidal efficacy (growth inhibition level) ([6]; 10g a.i./10a) | Amaranthus retroflexus herbicidal efficacy (growth inhibition level) ([7]; 5g a.i./10a) | Amaranthus retroflexus herbicidal efficacy (growth inhibition level) ([7]; 10g a.i./10a) | Chenopodium album herbicidal efficacy (growth inhibition level) ([8]; 5g a.i./10a) | Chenopodium album herbicidal efficacy (growth inhibition level) ([8]; 10g a.i./10a) | Digitaria ciliaris herbicidal efficacy (growth inhibition level) ([9]; 5g a.i./10a) | Digitaria ciliaris herbicidal efficacy (growth inhibition level) ([9]; 10g a.i./10a)
CC=CCNc1c(C#N)cnn1-c1nn2c(c1Cl)CCCC2 (mixture of isomers) [Compound 12] | 9 (9: 90% to less than 100%) | 10 (10: 100%) | 9 (9: 90% to less than 100%) | 10 (10: 100%) | 8 (8: 80% to less than 90%) | 9 (9: 90% to less than 100%) | 10 (10: 100%) | 10 (10: 100%) | 10 (10: 100%) | 10 (10: 100%) | 10 (10: 100%) | 10 (10: 100%) | 10 (10: 100%) | 10 (10: 100%) | 10 (10: 100%) | 10 (10: 100%) | 10 (10: 100%) | 10 (10: 100%)
C=CCN(C(=O)C(F)(F)C(F)(F)F)c1c(C#N)cnn1-c1nn2c(c1Cl)CCCC2 [Compound 28] | 9 (9: 90% to less than 100%) | 9 (9: 90% to less than 100%) | 8 (8: 80% to less than 90%) | 10 (10: 100%) | 8 (8: 80% to less than 90%) | 9 (9: 90% to less than 100%) | – | – | – | – | – | – | – | – | – | – | – | –
C=C(C)CNc1c([N+](=O)[O-])cnn1-c1nn2c(c1Cl)CCCC2 [Compound 31] | 9 (9: 90% to less than 100%) | 9 (9: 90% to less than 100%) | 9 (9: 90% to less than 100%) | 9 (9: 90% to less than 100%) | 7 (7: 70% to less than 80%) | 8 (8: 80% to less than 90%) | – | – | – | – | – | – | – | – | – | – | – | –
CC(C)=CCNc1c([N+](=O)[O-])cnn1-c1nn2c(c1Cl)CCCC2 [Compound 35] | 9 (9: 90% to less than 100%) | 9 (9: 90% to less than 100%) | 9 (9: 90% to less than 100%) | 10 (10: 100%) | 8 (8: 80% to less than 90%) | 10 (10: 100%) | – | – | – | – | – | – | – | – | – | – | – | –
C=CCN(C(=O)C(F)(F)F)c1c([N+](=O)[O-])cnn1-c1nn2c(c1Cl)CCCC2 [Compound 36] | 9 (9: 90% to less than 100%) | 10 (10: 100%) | 8 (8: 80% to less than 90%) | 9 (9: 90% to less than 100%) | 8 (8: 80% to less than 90%) | 9 (9: 90% to less than 100%) | – | – | – | – | – | – | – | – | – | – | – | –
O=C(N(C/C=C\Cl)c1c([N+](=O)[O-])cnn1-c1nn2c(c1Cl)CCCC2)C(F)(F)F [Compound 39] | 9 (9: 90% to less than 100%) | 10 (10: 100%) | 7 (7: 70% to less than 80%) | 8 (8: 80% to less than 90%) | 8 (8: 80% to less than 90%) | 8 (8: 80% to less than 90%) | – | – | – | – | – | – | – | – | – | – | – | –
